Assay results taken from PubChem BioAssay (NCI).
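Step 1: Grow cells in 96-well plates. Step 2: Expose to compound for 48 hours at 5 concentrations. Step 3: Interpolate endpoints linearly; if unreached, use highest concentration. At the TGI there is no net growth.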

Tests used:
Assay in all cases: NCI anticancer screen, dose series, 48 h
786-0 renal = test system: 786-0 renal
A498 renal = test system: A498 renal
A549 NSCLC = test system: A549 NSCLC
ACHN renal = test system: ACHN renal
BT-549 breast = test system: BT-549 breast
CAKI-1 renal = test system: CAKI-1 renal
COLO 205 colon = test system: COLO 205 colon
DU-145 prostate = test system: DU-145 prostate
EKVX NSCLC = test system: EKVX NSCLC
HCC-2998 colon = test system: HCC-2998 colon
HCT-116 colon = test system: HCT-116 colon
HCT-15 colon = test system: HCT-15 colon
HL-60(TB) leukemia = test system: HL-60(TB) leukemia
HOP-62 NSCLC = test system: HOP-62 NSCLC
HOP-92 NSCLC = test system: HOP-92 NSCLC
HS 578T breast = test system: HS 578T breast
HT29 colon = test system: HT29 colon
IGROV1 ovarian = test system: IGROV1 ovarian
K-562 leukemia = test system: K-562 leukemia
KM12 colon = test system: KM12 colon
LOX IMVI melanoma = test system: LOX IMVI melanoma
M14 melanoma = test system: M14 melanoma
MCF7 breast = test system: MCF7 breast
MDA-MB-231 breast = test system: MDA-MB-231 breast
MDA-MB-435 = test system: MDA-MB-435
MDA-N = test system: MDA-N
MOLT-4 leukemia = test system: MOLT-4 leukemia
NCI-H226 lung = test system: NCI-H226 lung
NCI-H23 lung = test system: NCI-H23 lung
NCI-H460 lung = test system: NCI-H460 lung
NCI-H522 lung = test system: NCI-H522 lung
NCI/ADR-RES ovarian = test system: NCI/ADR-RES ovarian
OVCAR-3 ovarian = test system: OVCAR-3 ovarian
OVCAR-4 ovarian = test system: OVCAR-4 ovarian
OVCAR-5 ovarian = test system: OVCAR-5 ovarian
OVCAR-8 ovarian = test system: OVCAR-8 ovarian
PC-3 prostate = test system: PC-3 prostate
RPMI-8226 leukemia = test system: RPMI-8226 leukemia
RXF 393 renal = test system: RXF 393 renal
SF-268 CNS = test system: SF-268 CNS
SF-295 CNS = test system: SF-295 CNS
SF-539 CNS = test system: SF-539 CNS
SK-MEL-2 melanoma = test system: SK-MEL-2 melanoma
SK-MEL-28 melanoma = test system: SK-MEL-28 melanoma
SK-MEL-5 melanoma = test system: SK-MEL-5 melanoma
SK-OV-3 ovarian = test system: SK-OV-3 ovarian
SN12C renal = test system: SN12C renal
SNB-19 CNS = test system: SNB-19 CNS
SNB-75 CNS = test system: SNB-75 CNS
SR leukemia = test system: SR leukemia
SW-620 colon = test system: SW-620 colon
T-47D breast = test system: T-47D breast
TK-10 renal = test system: TK-10 renal
U251 CNS = test system: U251 CNS
UACC-257 melanoma = test system: UACC-257 melanoma
UACC-62 melanoma = test system: UACC-62 melanoma
UO-31 renal = test system: UO-31 renal
MALME-3M melanoma = test system: MALME-3M melanoma

Question: Which results are given for CC(C)(N=NC(C)(C)C(=N)N)C(=N)N?
Answer: TGI (786-0 renal): > 100 µM; TGI (A498 renal): > 100 µM; TGI (A549 NSCLC): > 100 µM; TGI (ACHN renal): > 100 µM; TGI (BT-549 breast): > 100 µM; TGI (CAKI-1 renal): > 100 µM; TGI (COLO 205 colon): > 100 µM; TGI (DU-145 prostate): > 100 µM; TGI (EKVX NSCLC): > 100 µM; TGI (HCC-2998 colon): > 100 µM; TGI (HCT-116 colon): > 100 µM; TGI (HCT-15 colon): > 100 µM; TGI (HL-60(TB) leukemia): > 100 µM; TGI (HOP-62 NSCLC): > 100 µM; TGI (HOP-92 NSCLC): > 100 µM; TGI (HS 578T breast): > 100 µM; TGI (HT29 colon): > 100 µM; TGI (IGROV1 ovarian): > 100 µM; TGI (K-562 leukemia): > 100 µM; TGI (KM12 colon): > 100 µM; TGI (LOX IMVI melanoma): > 100 µM; TGI (M14 melanoma): > 100 µM; TGI (MCF7 breast): > 100 µM; TGI (MDA-MB-231 breast): > 100 µM; TGI (MDA-MB-435): > 100 µM; TGI (MDA-N): > 100 µM; TGI (MOLT-4 leukemia): > 100 µM; TGI (NCI-H226 lung): > 100 µM; TGI (NCI-H23 lung): > 100 µM; TGI (NCI-H460 lung): > 100 µM; TGI (NCI-H522 lung): > 100 µM; TGI (NCI/ADR-RES ovarian): > 100 µM; TGI (OVCAR-3 ovarian): > 100 µM; TGI (OVCAR-4 ovarian): > 100 µM; TGI (OVCAR-5 ovarian): > 100 µM; TGI (OVCAR-8 ovarian): > 100 µM; TGI (PC-3 prostate): > 100 µM; TGI (RPMI-8226 leukemia): > 100 µM; TGI (RXF 393 renal): > 100 µM; TGI (SF-268 CNS): > 100 µM; TGI (SF-295 CNS): > 100 µM; TGI (SF-539 CNS): > 100 µM; TGI (SK-MEL-2 melanoma): > 100 µM; TGI (SK-MEL-28 melanoma): > 100 µM; TGI (SK-MEL-5 melanoma): > 100 µM; TGI (SK-OV-3 ovarian): > 100 µM; TGI (SN12C renal): > 100 µM; TGI (SNB-19 CNS): > 100 µM; TGI (SNB-75 CNS): > 100 µM; TGI (SR leukemia): > 100 µM; TGI (SW-620 colon): > 100 µM; TGI (T-47D breast): > 100 µM; TGI (TK-10 renal): > 100 µM; TGI (U251 CNS): > 100 µM; TGI (UACC-257 melanoma): > 100 µM; TGI (UACC-62 melanoma): > 100 µM; TGI (UO-31 renal): > 100 µM

Question: With N#CC1(C#N)C2=C(CCCC2)NC(c2ccc(Br)cc2)C1(C#N)C#N (centres undefined) as the compound, how does the TGI (786-0 renal) read?
Answer: 3.75 µM

Question: And the TGI (A498 renal)?
Answer: 37.5 µM

Question: And the TGI (A549 NSCLC)?
Answer: 30.9 µM

Question: And the TGI (ACHN renal)?
Answer: 3.88 µM

Question: And the TGI (BT-549 breast)?
Answer: 26.9 µM

Question: And the TGI (CAKI-1 renal)?
Answer: 4.99 µM

Question: What about the TGI (COLO 205 colon) of the same compound?
Answer: 2.58 µM

Question: And the TGI (DU-145 prostate)?
Answer: 25.1 µM

Question: What about the TGI (EKVX NSCLC) of the same compound?
Answer: 25.3 µM

Question: And the TGI (HCC-2998 colon)?
Answer: 46.4 µM

Question: What about the TGI (HCT-116 colon) of the same compound?
Answer: 4.15 µM

Question: What about the TGI (HCT-15 colon) of the same compound?
Answer: 9.85 µM

Question: What about the TGI (HOP-62 NSCLC) of the same compound?
Answer: 35.7 µM

Question: And the TGI (HOP-92 NSCLC)?
Answer: 18.9 µM

Question: And the TGI (HS 578T breast)?
Answer: 44.6 µM

Question: And the TGI (HT29 colon)?
Answer: 10.1 µM

Question: And the TGI (IGROV1 ovarian)?
Answer: 9.24 µM

Question: And the TGI (K-562 leukemia)?
Answer: 12 µM

Question: What about the TGI (KM12 colon) of the same compound?
Answer: 29.4 µM

Question: And the TGI (LOX IMVI melanoma)?
Answer: 6.93 µM

Question: What about the TGI (M14 melanoma) of the same compound?
Answer: 7.04 µM

Question: And the TGI (MALME-3M melanoma)?
Answer: 3.83 µM

Question: What about the TGI (MCF7 breast) of the same compound?
Answer: 19.9 µM

Question: What about the TGI (MDA-MB-231 breast) of the same compound?
Answer: 23.9 µM

Question: What about the TGI (MDA-MB-435) of the same compound?
Answer: 9.05 µM

Question: And the TGI (MDA-N)?
Answer: 14 µM

Question: What about the TGI (MOLT-4 leukemia) of the same compound?
Answer: 15.7 µM

Question: What about the TGI (NCI-H226 lung) of the same compound?
Answer: 39 µM

Question: And the TGI (NCI-H23 lung)?
Answer: 30.3 µM

Question: What about the TGI (NCI-H460 lung) of the same compound?
Answer: 63.6 µM

Question: What about the TGI (NCI-H522 lung) of the same compound?
Answer: 3.06 µM

Question: And the TGI (NCI/ADR-RES ovarian)?
Answer: > 100 µM

Question: What about the TGI (OVCAR-3 ovarian) of the same compound?
Answer: 18.2 µM

Question: And the TGI (OVCAR-4 ovarian)?
Answer: 20.7 µM

Question: And the TGI (OVCAR-5 ovarian)?
Answer: 24.9 µM

Question: What about the TGI (OVCAR-8 ovarian) of the same compound?
Answer: 11.5 µM

Question: What about the TGI (PC-3 prostate) of the same compound?
Answer: 26.8 µM

Question: And the TGI (RPMI-8226 leukemia)?
Answer: 15.8 µM

Question: And the TGI (RXF 393 renal)?
Answer: 6.15 µM

Question: What about the TGI (SF-268 CNS) of the same compound?
Answer: 24.7 µM

Question: And the TGI (SF-295 CNS)?
Answer: 56.5 µM

Question: What about the TGI (SF-539 CNS) of the same compound?
Answer: 31.6 µM

Question: And the TGI (SK-MEL-2 melanoma)?
Answer: 34.1 µM

Question: And the TGI (SK-MEL-28 melanoma)?
Answer: 25.9 µM

Question: What about the TGI (SK-MEL-5 melanoma) of the same compound?
Answer: 28.8 µM

Question: What about the TGI (SK-OV-3 ovarian) of the same compound?
Answer: > 56.4 µM

Question: And the TGI (SN12C renal)?
Answer: 7.06 µM

Question: And the TGI (SNB-19 CNS)?
Answer: 30.1 µM

Question: What about the TGI (SNB-75 CNS) of the same compound?
Answer: 30.8 µM

Question: What about the TGI (SR leukemia) of the same compound?
Answer: 5.56 µM

Question: What about the TGI (SW-620 colon) of the same compound?
Answer: 2.88 µM

Question: And the TGI (T-47D breast)?
Answer: 5.41 µM

Question: And the TGI (TK-10 renal)?
Answer: 16 µM

Question: What about the TGI (U251 CNS) of the same compound?
Answer: 26.8 µM

Question: And the TGI (UACC-257 melanoma)?
Answer: 11.5 µM

Question: And the TGI (UACC-62 melanoma)?
Answer: 32.4 µM

Question: What about the TGI (UO-31 renal) of the same compound?
Answer: 3.03 µM
